Columns and labels:
Aspergillus niger = experiment: Inhibition of Aspergillus niger amyloglucosidase using p-nitrophenyl glycoside as substrate assessed as release of p-nitrophenol at 1000 uM measured by spectrometric assay relative to control
[1] = Inhibition of bovine liver beta-glucosidase using p-nitrophenyl glycoside as substrate assessed as release of p-nitrophenol measured by spectrometric assay; set-up: species or system Bos taurus
Sus scrofa = species on record: Sus scrofa; experiment: Inhibition of porcine kidney alpha-trehalase using p-nitrophenyl glycoside as substrate assessed as release of p-nitrophenol at 1000 uM measured by spectrometric assay relative to control
Alpha-galactosidase = Alpha-galactosidase (Coffea arabica, UniProt Q42656); experiment: Inhibition of coffee beans alpha-galactosidase using p-nitrophenyl glycoside as substrate assessed as release of p-nitrophenol measured by spectrometric assay
[2] = Inhibition of Aspergillus niger amyloglucosidase using p-nitrophenyl glycoside as substrate assessed as release of p-nitrophenol measured by spectrometric assay
[3] = molecular target: T1, Sucrase-isomaltase, intestinal (Rattus norvegicus, UniProt P23739); experiment: Inhibition of rat intestinal sucrase using p-nitrophenyl glycoside as substrate assessed as release of p-nitrophenol measured by spectrometric assay; conditions: read-out: IC50
[4] = Inhibition of snail beta-mannosidase using p-nitrophenyl glycoside as substrate assessed as release of p-nitrophenol measured by spectrometric assay; set-up: species or system Helix pomatia
Helix pomatia = experiment: Inhibition of snail beta-mannosidase using p-nitrophenyl glycoside as substrate assessed as release of p-nitrophenol at 1000 uM measured by spectrometric assay relative to control
Bos taurus [5] = species on record: Bos taurus; experiment: Inhibition of bovine liver beta-glucosidase using p-nitrophenyl glycoside as substrate assessed as release of p-nitrophenol at 1000 uM measured by spectrometric assay relative to control; format: tissue-based
Penicillium decumbens = experiment: Inhibition of Penicillium decumbens alpha-L-rhamnosidase using p-nitrophenyl glycoside as substrate assessed as release of p-nitrophenol at 1000 uM measured by spectrometric assay relative to control
[6] = molecular target: T2, Tissue alpha-L-fucosidase (Bos taurus, UniProt Q2KIM0); experiment: Inhibition of bovine kidney alpha-L-fucosidase using p-nitrophenyl glycoside as substrate assessed as release of p-nitrophenol measured by spectrometric assay
T2 sequence (Q2KIM0 whole entry): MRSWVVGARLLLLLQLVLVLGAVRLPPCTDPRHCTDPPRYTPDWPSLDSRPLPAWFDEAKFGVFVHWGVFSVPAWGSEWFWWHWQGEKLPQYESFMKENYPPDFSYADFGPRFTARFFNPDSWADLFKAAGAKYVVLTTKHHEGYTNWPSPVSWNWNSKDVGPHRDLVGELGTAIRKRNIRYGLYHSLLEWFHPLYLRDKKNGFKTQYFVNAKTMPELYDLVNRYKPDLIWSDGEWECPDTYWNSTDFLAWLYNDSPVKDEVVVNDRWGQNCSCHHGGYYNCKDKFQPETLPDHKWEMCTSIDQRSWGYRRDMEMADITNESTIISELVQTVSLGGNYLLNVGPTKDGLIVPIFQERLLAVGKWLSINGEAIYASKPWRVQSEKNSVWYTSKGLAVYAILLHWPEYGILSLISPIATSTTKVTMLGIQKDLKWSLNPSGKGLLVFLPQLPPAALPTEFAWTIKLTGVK

[7] = molecular target: T3, Tissue alpha-L-fucosidase (Bos taurus) (UniProt Q2KIM0); experiment: Inhibition of bovine kidney alpha-L-fucosidase using p-nitrophenyl glycoside as substrate assessed as release of p-nitrophenol at 1000 uM measured by spectrometric assay relative to control; format: tissue-based
T3 sequence (whole entry): T2 sequence (Q2KIM0 whole entry)

Beta-glucuronidase = Beta-glucuronidase (Escherichia coli (strain K12), UniProt P05804); experiment: Inhibition of Escherichia coli beta-glucuronidase using p-nitrophenyl glycoside as substrate assessed as release of p-nitrophenol measured by spectrometric assay
[8] = molecular target: T4, Alpha-mannosidase (Canavalia ensiformis) (UniProt C0HJB3); experiment: Inhibition of jack bean alpha-mannosidase using p-nitrophenyl glycoside as substrate assessed as release of p-nitrophenol at 1000 uM measured by spectrometric assay relative to control
T4 sequence (whole entry): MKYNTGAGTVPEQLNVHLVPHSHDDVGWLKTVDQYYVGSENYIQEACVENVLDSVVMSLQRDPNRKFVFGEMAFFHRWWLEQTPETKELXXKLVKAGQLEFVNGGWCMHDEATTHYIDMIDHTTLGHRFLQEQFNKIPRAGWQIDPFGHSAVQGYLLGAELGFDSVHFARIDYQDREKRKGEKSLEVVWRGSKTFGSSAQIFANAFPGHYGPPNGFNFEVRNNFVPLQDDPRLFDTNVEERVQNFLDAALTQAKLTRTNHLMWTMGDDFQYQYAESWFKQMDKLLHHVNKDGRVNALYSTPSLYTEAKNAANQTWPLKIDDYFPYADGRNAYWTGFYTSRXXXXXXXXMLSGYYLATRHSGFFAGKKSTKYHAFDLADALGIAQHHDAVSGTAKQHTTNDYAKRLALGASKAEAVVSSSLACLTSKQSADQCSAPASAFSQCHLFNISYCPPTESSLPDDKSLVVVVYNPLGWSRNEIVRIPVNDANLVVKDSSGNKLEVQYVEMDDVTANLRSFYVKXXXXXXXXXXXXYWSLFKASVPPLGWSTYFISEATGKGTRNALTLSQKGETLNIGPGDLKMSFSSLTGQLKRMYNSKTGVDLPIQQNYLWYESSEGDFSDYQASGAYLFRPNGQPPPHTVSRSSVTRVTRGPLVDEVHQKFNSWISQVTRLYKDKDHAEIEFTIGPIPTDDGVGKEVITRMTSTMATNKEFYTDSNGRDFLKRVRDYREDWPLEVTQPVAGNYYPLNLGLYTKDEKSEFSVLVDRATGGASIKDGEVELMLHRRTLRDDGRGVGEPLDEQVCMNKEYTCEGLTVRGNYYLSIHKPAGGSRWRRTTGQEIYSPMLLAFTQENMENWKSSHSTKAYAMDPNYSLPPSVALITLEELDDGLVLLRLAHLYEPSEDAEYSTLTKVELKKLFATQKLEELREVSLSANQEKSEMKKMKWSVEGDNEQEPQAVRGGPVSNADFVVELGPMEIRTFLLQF

[9] = molecular target: Beta-glucuronidase (Escherichia coli (strain K12)) (UniProt P05804); experiment: Inhibition of Escherichia coli beta-glucuronidase using p-nitrophenyl glycoside as substrate assessed as release of p-nitrophenol at 1000 uM measured by spectrometric assay relative to control
[10] = Inhibition of rat intestinal maltase using maltose as substrate assessed as release of D-glucose measured by spectrometric assay
Bos taurus [11] = species on record: Bos taurus; experiment: Inhibition of bovine liver beta-galactosidase using p-nitrophenyl glycoside as substrate assessed as release of p-nitrophenol at 1000 uM measured by spectrometric assay relative to control
[12] = Inhibition of jack bean alpha-mannosidase using p-nitrophenyl glycoside as substrate assessed as release of p-nitrophenol measured by spectrometric assay; set-up: species or system Canavalia ensiformis
[13] = Inhibition of porcine kidney alpha-trehalase using p-nitrophenyl glycoside as substrate assessed as release of p-nitrophenol measured by spectrometric assay; set-up: species or system Sus scrofa
[14] = Inhibition of almond beta-glucosidase using p-nitrophenyl glycoside as substrate assessed as release of p-nitrophenol measured by spectrometric assay; set-up: species or system Prunus dulcis
Prunus dulcis = experiment: Inhibition of almond beta-glucosidase using p-nitrophenyl glycoside as substrate assessed as release of p-nitrophenol at 1000 uM measured by spectrometric assay relative to control
[15] = molecular target: T1, Sucrase-isomaltase, intestinal; experiment: Inhibition of rat intestinal isomaltase using p-nitrophenyl glycoside as substrate assessed as release of p-nitrophenol measured by spectrometric assay; conditions: read-out: IC50
[16] = Inhibition of bovine liver beta-galactosidase using p-nitrophenyl glycoside as substrate assessed as release of p-nitrophenol measured by spectrometric assay; format: tissue-based, Bos taurus
[17] = Inhibition of rice alpha-glucosidase using p-nitrophenyl glycoside as substrate assessed as release of p-nitrophenol measured by spectrometric assay; set-up: species or system Oryza sativa
[18] = Inhibition of Penicillium decumbens alpha-L-rhamnosidase using p-nitrophenyl glycoside as substrate assessed as release of p-nitrophenol measured by spectrometric assay

Alpha-galactosidase, sequence (Q42656 whole entry): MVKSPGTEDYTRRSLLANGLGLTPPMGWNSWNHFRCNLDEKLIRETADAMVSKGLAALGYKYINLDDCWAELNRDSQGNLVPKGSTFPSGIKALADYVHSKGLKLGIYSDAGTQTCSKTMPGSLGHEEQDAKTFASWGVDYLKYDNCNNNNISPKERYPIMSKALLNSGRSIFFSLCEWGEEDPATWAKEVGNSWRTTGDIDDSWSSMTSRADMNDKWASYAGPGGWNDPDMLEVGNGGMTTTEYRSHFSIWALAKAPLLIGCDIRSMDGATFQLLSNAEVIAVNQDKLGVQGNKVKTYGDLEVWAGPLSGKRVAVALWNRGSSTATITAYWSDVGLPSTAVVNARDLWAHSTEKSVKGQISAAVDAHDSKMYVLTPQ
T1 sequence (P23739 1-1013 limits assumed): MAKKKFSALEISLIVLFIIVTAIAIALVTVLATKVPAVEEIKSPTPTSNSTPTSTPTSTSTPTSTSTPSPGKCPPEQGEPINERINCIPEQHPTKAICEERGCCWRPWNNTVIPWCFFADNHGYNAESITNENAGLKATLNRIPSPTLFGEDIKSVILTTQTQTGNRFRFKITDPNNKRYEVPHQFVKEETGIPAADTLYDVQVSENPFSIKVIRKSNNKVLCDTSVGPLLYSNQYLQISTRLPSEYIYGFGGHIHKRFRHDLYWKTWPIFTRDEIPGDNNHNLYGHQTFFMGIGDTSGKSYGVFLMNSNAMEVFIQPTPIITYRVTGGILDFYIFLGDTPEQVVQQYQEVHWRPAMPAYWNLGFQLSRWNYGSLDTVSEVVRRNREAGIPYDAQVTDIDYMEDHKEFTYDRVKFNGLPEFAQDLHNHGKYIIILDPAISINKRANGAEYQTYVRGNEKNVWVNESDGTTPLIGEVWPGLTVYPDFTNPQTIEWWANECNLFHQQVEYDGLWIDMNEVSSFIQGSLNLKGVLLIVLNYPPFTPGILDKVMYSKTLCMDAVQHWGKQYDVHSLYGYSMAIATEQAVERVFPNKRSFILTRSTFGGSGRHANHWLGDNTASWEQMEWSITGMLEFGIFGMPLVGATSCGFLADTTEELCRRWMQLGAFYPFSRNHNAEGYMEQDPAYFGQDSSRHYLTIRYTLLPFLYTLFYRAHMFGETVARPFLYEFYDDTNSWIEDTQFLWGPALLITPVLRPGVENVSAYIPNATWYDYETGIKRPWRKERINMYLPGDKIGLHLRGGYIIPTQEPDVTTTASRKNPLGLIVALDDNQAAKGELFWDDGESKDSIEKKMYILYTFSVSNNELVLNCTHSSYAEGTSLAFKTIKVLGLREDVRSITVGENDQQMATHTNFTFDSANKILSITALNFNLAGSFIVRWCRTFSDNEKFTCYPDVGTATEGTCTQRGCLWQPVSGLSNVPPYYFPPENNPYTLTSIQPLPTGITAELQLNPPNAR
T1 sequence (P23739 1014-1841 limits assumed): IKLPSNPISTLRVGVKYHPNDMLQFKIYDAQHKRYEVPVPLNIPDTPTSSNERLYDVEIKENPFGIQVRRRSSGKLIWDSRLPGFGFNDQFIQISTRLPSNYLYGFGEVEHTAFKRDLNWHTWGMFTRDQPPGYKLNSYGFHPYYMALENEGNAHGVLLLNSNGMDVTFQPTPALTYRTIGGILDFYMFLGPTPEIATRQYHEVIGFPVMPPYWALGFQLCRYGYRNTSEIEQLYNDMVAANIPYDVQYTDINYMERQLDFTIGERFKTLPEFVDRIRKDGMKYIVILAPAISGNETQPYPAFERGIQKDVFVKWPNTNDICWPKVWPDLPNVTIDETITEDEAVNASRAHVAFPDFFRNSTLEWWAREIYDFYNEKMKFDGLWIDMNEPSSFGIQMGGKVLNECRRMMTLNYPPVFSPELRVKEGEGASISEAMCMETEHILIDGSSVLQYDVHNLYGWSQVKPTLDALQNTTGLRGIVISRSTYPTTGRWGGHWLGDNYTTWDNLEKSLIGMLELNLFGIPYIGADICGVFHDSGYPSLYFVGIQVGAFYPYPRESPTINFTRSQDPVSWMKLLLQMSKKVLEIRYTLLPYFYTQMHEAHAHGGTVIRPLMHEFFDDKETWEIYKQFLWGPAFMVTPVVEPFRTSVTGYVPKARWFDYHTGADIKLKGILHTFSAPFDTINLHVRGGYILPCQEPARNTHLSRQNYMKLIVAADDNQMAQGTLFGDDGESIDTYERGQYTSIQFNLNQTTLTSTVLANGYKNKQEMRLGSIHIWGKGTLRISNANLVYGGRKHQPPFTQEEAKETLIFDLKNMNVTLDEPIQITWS
Beta-glucuronidase (Escherichia coli (strain K12)), sequence (P05804 whole entry, looked up): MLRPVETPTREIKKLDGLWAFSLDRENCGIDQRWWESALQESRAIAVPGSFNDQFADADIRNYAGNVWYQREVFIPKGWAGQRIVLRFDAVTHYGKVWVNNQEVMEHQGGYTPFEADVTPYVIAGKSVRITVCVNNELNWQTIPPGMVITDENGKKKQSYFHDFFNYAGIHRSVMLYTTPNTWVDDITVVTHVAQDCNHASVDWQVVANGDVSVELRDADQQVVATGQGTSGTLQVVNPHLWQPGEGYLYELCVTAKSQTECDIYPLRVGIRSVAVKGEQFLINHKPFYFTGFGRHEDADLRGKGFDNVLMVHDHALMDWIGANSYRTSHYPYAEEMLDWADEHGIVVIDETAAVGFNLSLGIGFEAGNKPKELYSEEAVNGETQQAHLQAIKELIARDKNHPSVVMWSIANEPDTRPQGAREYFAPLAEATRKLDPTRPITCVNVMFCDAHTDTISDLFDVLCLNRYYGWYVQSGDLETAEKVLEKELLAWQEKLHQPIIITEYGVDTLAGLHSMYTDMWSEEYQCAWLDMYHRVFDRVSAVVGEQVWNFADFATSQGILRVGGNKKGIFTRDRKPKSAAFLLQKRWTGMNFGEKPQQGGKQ
Beta-glucuronidase, sequence (P05804 whole entry): as the sequence (P05804 whole entry, looked up) above

Row | Structure (SMILES) | inhibition (Aspergillus niger) [%] | IC50 [1] | inhibition (Sus scrofa) [%] | IC50 (Alpha-galactosidase; read-out: IC50) [nM] | IC50 [2] | IC50 [3] [nM] | IC50 [4] | inhibition (Helix pomatia) [%] | inhibition (Penicillium decumbens) [%] | IC50 [6] | inhibition [7] [%] | inhibition [8] [%] | IC50 [10] [nM] | IC50 [12] | IC50 [13] | IC50 [14] | inhibition (Prunus dulcis) [%] | IC50 [15] [nM] | IC50 ([17]; read-out: IC50) [nM] | IC50 [18] | further results
1 | CCCCCCCCCCCC[C@]1(CO)NC[C@H](O)[C@@H](O)[C@@H]1O.Cl | 10.7 | Not Active | 4.8 | 10000 | Not Active | 1200 | Not Active | 1.5 | 0.3 | Not Active | 16 | 7.9 | 70 | Not Active | Not Active | Not Active | 10 | 7800 | 24 | Not Active | inhibition (Bos taurus [5]): 25%; IC50 (Beta-glucuronidase): Not Active; inhibition [9]: 16.5%; inhibition (Bos taurus [11]): 48.4%; IC50 [16]: Not Active
2 | OC[C@@H]1NC[C@H](O)[C@@H](O)[C@@H]1O |  | Not Active |  |  | Not Active |  | Not Active |  |  | Not Active |  |  | 8400 | Not Active | Not Active | Not Active |  |  |  | Not Active | IC50 (Alpha-galactosidase): Not Active; IC50 (Beta-glucuronidase): Not Active; IC50 [16]: Not Active; IC50 [17]: Not Active
3 | CCCC[C@]1(CO)NC[C@H](O)[C@@H](O)[C@@H]1O.Cl | 17.1 |  | 33.5 | 58000 | Not Active | 560 | Not Active | 16.5 | 16.3 | Not Active | 10.3 | 6.6 | 170 | Not Active | Not Active | Not Active | 36.6 | 2600 | 140 | Not Active | IC50 ([1]; read-out: IC50): 315000 nM; IC50 (Beta-glucuronidase; read-out: IC50): 679000 nM; IC50 ([16]; read-out: IC50): 127000 nM

The remaining molecules from weak to strong by IC50 (Alpha-galactosidase; read-out: IC50), led by results:

Row | inhibition (Aspergillus niger) [%] | IC50 [1] | inhibition (Sus scrofa) [%] | IC50 (Alpha-galactosidase; read-out: IC50) [nM] | IC50 [2] | IC50 [3] [nM] | IC50 [4] | inhibition (Helix pomatia) [%] | inhibition (Penicillium decumbens) [%] | IC50 [6] | inhibition [7] [%] | inhibition [8] [%] | IC50 [10] [nM] | IC50 [12] | IC50 [13] | IC50 [14] | inhibition (Prunus dulcis) [%] | IC50 [15] [nM] | IC50 ([17]; read-out: IC50) [nM] | IC50 [18] | Structure (SMILES) | further results
4 | 12.2 | Not Active | 12.9 | 109000 | Not Active | 230 | Not Active | 8.5 | 0 | Not Active | 45.9 | 17.3 | 36 | Not Active | Not Active | Not Active | 36.3 | 550 | 50 | Not Active | CCCCCCC[C@]1(CO)NC[C@H](O)[C@@H](O)[C@@H]1O.Cl | inhibition (Bos taurus [5]): 20.5%; IC50 (Beta-glucuronidase; read-out: IC50): 28000 nM; inhibition (Bos taurus [11]): 29%; IC50 [16]: Not Active
5 | 9.2 |  | 5.7 | 18000 | Not Active | 1700 | Not Active | 0 | 0 | Not Active | 0.9 | 4.3 | 120 | Not Active | Not Active | Not Active | 10 | 13000 | 33 | Not Active | CCCCCCCCCC[C@]1(CO)NC[C@H](O)[C@@H](O)[C@@H]1O.Cl | IC50 ([1]; read-out: IC50): 21000 nM; IC50 (Beta-glucuronidase): Not Active; inhibition [9]: 24.4%
6 | 14.1 |  |  | 15000 | Not Active | 450 | Not Active | 2.5 | 9.1 | Not Active | 25.3 | 10.7 | 120 | Not Active |  | Not Active | 41.7 | 1700 | 28 | Not Active | CCCCCCCCC[C@]1(CO)NC[C@H](O)[C@@H](O)[C@@H]1O.Cl | IC50 ([1]; read-out: IC50): 211000 nM; IC50 (Beta-glucuronidase; read-out: IC50): 158000 nM; IC50 ([13]; read-out: IC50): 494000 nM; IC50 ([16]; read-out: IC50): 68000 nM
7 | 0 | Not Active | 20.3 | 3600 | Not Active | 190 | Not Active | 0 | 4.5 | Not Active | 6.6 | 2.1 | 32 | Not Active | Not Active | Not Active | 10 | 1100 | 20 | Not Active | CCCCCCCCCCC[C@]1(CO)NC[C@H](O)[C@@H](O)[C@@H]1O.Cl | inhibition (Bos taurus [5]): 3.7%; IC50 (Beta-glucuronidase): Not Active; inhibition [9]: 25.2%; IC50 ([16]; read-out: IC50): 70000 nM

Reference: ChEMBL document CHEMBL4828725 (Eur J Med Chem, 2021)
